Biological target: Full length human recombinant PIKFYVE (Homo sapiens (Human), UniProt Q9Y2I7)
Test: Inhibition of PIKfyve (microfluidic electrophoresis kinase assay)
Type: biochemical
Details: 2 nM enzyme, PI3P/PS substrate, 3 h at room temperature, 12 concentrations
Procedure: Full length human recombinant PIKFYVE expressed in baculovirus expression system as N-terminal GST-fusion protein (265 kDa) was obtained from Carna Biosciences (Kobe, Japan). The kinase substrate was prepared by mixing and sonicating fluorescently-labeled phosphatidylinositol 3-phosphate (PI3P) with phospho-L-serine (PS) at a 1:10 ratio in 50 mM HEPES buffer pH7.5.
The kinase reactions were assembled in 384-well plates (Greiner) in a total volume of […] as follows. Kinase protein was pre-diluted in an assay buffer comprising 25 mM HEPES, pH 7.5, 1 mM DTT, 2.5 mM MgCl2, and 2.5 mM MnCl2, and 0.005% Triton X-100, and dispensed into a 384-well plate (10 μL per well). Test compounds were serially pre-diluted in DMSO and added to the protein samples by acoustic dispensing (Labcyte Echo). The concentration of DMSO was equalized to 1% in all samples. All test compounds were tested at 12 concentrations. Apilimod was used as a reference compound and was tested in identical manner in each assay plate. Control samples (0%-inhibition, in the absence of inhibitor, DMSO only) and 100%-inhibition (in the absence of enzyme) were assembled in replicates of four and were used to calculate %-inhibition in the presence of compounds. The reactions were initiated by addition of 10 μL of 2× PI3P/PS substrate supplemented with ATP. The final concentration of enzyme was 2 nM, the final concentration of ATP was 10 mM, and the final concentration of PI3P/PS substrate was 1 μM (PI3P). The kinase reactions were allowed to proceed for 3 h at room temperature. Following incubation, the reactions were quenched by addition of […] of termination buffer (100 mM HEPES, pH 7.5, 0.01% Triton X-100, 20 mM EDTA). Terminated plates were analyzed on a microfluidic electrophoresis instrument (Caliper LabChip® 3000, Caliper Life Sciences/Perkin Elmer). The change in the relative fluorescence intensity of the PI (3) P substrate and PI (3,5) P product peaks was measured. The activity in each test sample was determined as the product to sum ratio (PSR): P/(S+P), where P is the peak height of the product, and S is the peak height of the substrate. Percent inhibition (Pinh) was determined using the following equation: Pinh=(PSR0% inh−PSRcompound)/(PSR0% inh−PSR100% inh)*100 in which PSRcompound is the product/sum ratio in the presence of compound, PSR0% inh is the product/sum ratio in the absence of compound, and the PSR100% inh is the product/sum ratio in the absence of the enzyme.

Sequence of Full length human recombinant PIKFYVE (Q9Y2I7 whole entry): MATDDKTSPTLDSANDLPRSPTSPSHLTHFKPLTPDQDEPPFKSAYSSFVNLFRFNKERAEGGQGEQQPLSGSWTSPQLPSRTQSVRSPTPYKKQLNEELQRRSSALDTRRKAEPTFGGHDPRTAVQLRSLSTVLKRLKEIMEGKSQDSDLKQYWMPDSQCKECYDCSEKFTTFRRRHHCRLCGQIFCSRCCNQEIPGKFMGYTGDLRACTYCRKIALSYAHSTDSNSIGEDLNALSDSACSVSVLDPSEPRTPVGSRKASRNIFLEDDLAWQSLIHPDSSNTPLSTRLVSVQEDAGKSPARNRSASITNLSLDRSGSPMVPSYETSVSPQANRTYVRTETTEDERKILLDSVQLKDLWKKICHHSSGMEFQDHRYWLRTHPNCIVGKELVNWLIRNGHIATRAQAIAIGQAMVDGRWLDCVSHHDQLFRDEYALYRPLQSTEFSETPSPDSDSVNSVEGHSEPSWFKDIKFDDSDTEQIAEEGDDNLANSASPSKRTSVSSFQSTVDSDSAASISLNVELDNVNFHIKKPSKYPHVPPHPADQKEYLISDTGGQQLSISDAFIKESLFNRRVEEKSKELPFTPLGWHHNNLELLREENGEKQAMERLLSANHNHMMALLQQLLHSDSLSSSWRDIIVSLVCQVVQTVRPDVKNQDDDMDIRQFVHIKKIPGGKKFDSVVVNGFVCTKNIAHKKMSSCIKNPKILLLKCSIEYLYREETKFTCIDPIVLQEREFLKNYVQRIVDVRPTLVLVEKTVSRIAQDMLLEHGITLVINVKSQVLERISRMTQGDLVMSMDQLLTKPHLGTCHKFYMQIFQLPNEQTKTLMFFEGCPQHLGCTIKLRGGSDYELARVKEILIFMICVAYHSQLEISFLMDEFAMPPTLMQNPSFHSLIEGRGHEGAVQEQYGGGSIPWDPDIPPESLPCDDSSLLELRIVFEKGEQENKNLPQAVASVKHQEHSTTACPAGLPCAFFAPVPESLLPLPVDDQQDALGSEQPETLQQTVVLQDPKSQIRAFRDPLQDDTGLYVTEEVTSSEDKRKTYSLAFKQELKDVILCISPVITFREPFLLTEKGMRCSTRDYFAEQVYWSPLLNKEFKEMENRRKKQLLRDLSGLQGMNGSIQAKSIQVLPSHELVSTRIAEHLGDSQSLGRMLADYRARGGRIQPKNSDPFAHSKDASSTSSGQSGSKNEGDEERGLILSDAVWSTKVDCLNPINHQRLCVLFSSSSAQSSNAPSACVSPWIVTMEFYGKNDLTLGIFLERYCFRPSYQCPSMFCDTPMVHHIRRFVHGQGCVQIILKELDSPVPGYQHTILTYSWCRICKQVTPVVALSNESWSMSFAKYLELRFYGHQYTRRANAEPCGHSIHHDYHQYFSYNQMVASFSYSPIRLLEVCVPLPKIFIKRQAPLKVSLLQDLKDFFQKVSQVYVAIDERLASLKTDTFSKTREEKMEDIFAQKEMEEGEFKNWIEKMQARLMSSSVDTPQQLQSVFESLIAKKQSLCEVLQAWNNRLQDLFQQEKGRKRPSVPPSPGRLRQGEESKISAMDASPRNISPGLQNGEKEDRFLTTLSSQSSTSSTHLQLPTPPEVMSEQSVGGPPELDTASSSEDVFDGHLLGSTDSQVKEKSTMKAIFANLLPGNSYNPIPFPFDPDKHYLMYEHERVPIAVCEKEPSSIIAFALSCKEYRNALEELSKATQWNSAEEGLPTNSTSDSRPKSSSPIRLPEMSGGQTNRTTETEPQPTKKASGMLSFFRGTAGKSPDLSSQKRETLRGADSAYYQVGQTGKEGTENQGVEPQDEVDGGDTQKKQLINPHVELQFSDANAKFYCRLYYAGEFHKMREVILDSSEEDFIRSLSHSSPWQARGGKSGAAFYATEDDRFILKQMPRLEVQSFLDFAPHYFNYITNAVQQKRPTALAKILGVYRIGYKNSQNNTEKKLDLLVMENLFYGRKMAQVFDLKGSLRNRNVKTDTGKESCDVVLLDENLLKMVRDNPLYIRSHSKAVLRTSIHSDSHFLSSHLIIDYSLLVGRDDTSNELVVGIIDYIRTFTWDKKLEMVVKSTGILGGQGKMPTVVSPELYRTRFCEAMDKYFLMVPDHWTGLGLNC

Row | IC50 | Structure (SMILES)
1 | > 10000 nM | Clc1cccc(-c2ccn(-c3cc(N4CCOCC4)n4nc(-c5cccnc5)cc4n3)n2)c1 [Compound 105, 4-[5-[3-(3-chlorophenyl)pyrazol-1-yl]-2-(3-pyridyl)pyrazolo[1,5-a]pyrimidin-7-yl]morpholine]
2 | 1350 nM | Cc1cccc(-c2ccn(-c3cc(N4CCOCC4)n4nc(-c5cccnc5)cc4n3)n2)n1 [Compound 108, 4-[5-[3-(6-methyl-2-pyridyl)pyrazol-1-yl]-2-(3-pyridyl)pyrazolo[1,5-a]pyrimidin-7-yl]morpholine]
3 | 350 nM | Cc1ccnc(-c2ccn(-c3cc(N4CCOCC4)n4nc(-c5cc(C)n(CCN(C)C)n5)cc4n3)n2)c1 [Compound 95, N,N-dimethyl-2-[5-methyl-3-[5-[3-(4-methyl-2-pyridyl)pyrazol-1-yl]-7-morpholino-pyrazolo[1,5-a]pyrimidin-2-yl]pyrazol-1-yl]ethanamine]
4 | > 10000 nM | Cc1cc(Nc2cc(N3CCOCC3)n3nc(-c4ccncc4)cc3n2)n[nH]1 [Example 5, N-(5-methyl-1H-pyrazol-3-yl)-7-morpholino-2-(4-pyridyl)pyrazolo[1,5-a]pyrimidin-5-amine]
5 | 41 nM | Cn1ccc(-c2cc3nc(-n4ccc(-c5cccc(Cl)c5)n4)cc(N4CCOCC4)n3n2)n1 [Compound 101, 4-[5-[3-(3-chlorophenyl)pyrazol-1-yl]-2-(1-methylpyrazol-3-yl)pyrazolo[1,5-a]pyrimidin-7-yl]morpholine]

The remaining lines, values behind:

Row | Structure (SMILES) | IC50
6 | Cc1cccc(-c2ccn(-c3cc(N4CCOCC4)n4nc(-c5cc(C)no5)cc4n3)n2)c1 [Compound 110, 4-[2-(3-methylisoxazol-5-yl)-5-[3-(m-tolyl)pyrazol-1-yl]pyrazolo[1,5-a]pyrimidin-7-yl]morpholine] | 2.2 nM
7 | CON(C)C(=O)c1cc2nc(-n3ccc(-c4cccc(C)c4)n3)cc(N3CCOCC3)n2n1 [Example 33, N-methoxy-N-methyl-7-morpholino-5-(3-(m-tolyl)-1H-pyrazol-1-yl)pyrazolo[1,5-a]pyrimidine-2-carboxamide] | 113 nM
8 | Cc1cccc(-c2ccn(-c3cc(N4CCOCC4)n4nc(C(=O)N(C)C5CC5)cc4n3)n2)c1 [Example 26, N-cyclopropyl-N-methyl-7-morpholino-5-(3-(m-tolyl)-1H-pyrazol-1-yl)pyrazolo[1,5-a]pyrimidine-2-carboxamide] | 162 nM
9 | Cc1cccc(-c2ccn(-c3cc(N4CCOCC4)n4nc(C(=O)N5CCCCC5)cc4n3)n2)c1 [Example 30, (7-morpholino-5-(3-(m-tolyl)-1H-pyrazol-1-yl)pyrazolo[1,5-a]pyrimidin-2-yl)(piperidin-1-yl)methanone] | 247 nM
10 | Cc1cccc(-c2ccn(-c3cc(N4CCOCC4)n4nc(-c5cc[nH]n5)cc4n3)n2)c1 [Compound 62, 4-[5-[3-(m-tolyl)pyrazol-1-yl]-2-(1H-pyrazol-3-yl)pyrazolo[1,5-a]pyrimidin-7-yl]morpholine] | 15.8 nM
11 | c1ccc(-c2ccn(-c3cc(N4CCOCC4)n4nc(-c5cc[nH]n5)cc4n3)n2)cc1 [Compound 67, 4-[5-(3-phenylpyrazol-1-yl)-2-(1H-pyrazol-3-yl)pyrazolo[1,5-a]pyrimidin-7-yl]morpholine] | 261 nM
12 | Cc1cccc(-c2ccn(-c3cc(N4CCOCC4)n4nc(-c5cc(C)n(CCN(C)C)n5)cc4n3)n2)n1 [Compound 94, N,N-dimethyl-2-[5-methyl-3-[5-[3-(6-methyl-2-pyridyl)pyrazol-1-yl]-7-morpholino-pyrazolo[1,5-a]pyrimidin-2-yl]pyrazol-1-yl]ethanamine] | 4390 nM
13 | Cc1cccc(-c2ccn(-c3cc(N4CCOCC4)n4nc(C(=O)N[C@H]5CCCN(C)C5)cc4n3)n2)c1 [Compound 53, N-[(3S)-1-methyl-3-piperidyl]-7-morpholino-5-[3-(m-tolyl)pyrazol-1-yl]pyrazolo[1,5-a]pyrimidine-2-carboxamide] | 26.8 nM
